The structures appear in SMILES notation. Converted amounts (≈) assume the structure as drawn. Read-outs that look alike come from different tables or passages of the source. Square brackets hold non-standard residues; d marks the D form. Peptide text beside a SMILES is read from it. Cha = N[C@@H](CC1CCCCC1)C(=O)O

One assay has as its system E. coli D22 strain. In words: microbe, parasite or virus in culture. It counts as cell-based. Particulars: for antibacterial activity, in words: E. coli D22, microdilution broth assay. From the text:
E. coli strain D22 (F-, IpxC101, proA23, lac-28, tsx-81, trp-30, his-51, tufA1, rpsL173(strR), ampCp-1 was purchased at E. coli Genetic Stock Center (Yale University) and used in the determination of MIC and in the peptide penetration assays. E. coli ATCC23724 cells were used to infect D. melanogaster flies. 70S ribosomes were purified from the E. coli MRE600 strain (Accession AY140951) and BL21 (DE3) pLys strain was used for production of the DnaN protein.
(§1) E. coli strains were cultivated on either agar or liquid 1× Mueller Hinton broth unless specified. MIC assays were performed in duplicate in 96-well microtiter plates on the basis of the protocol recommended by the Clinical and Laboratory Standards Institute. Briefly, a mix of 5-6 fresh (less than 36 hours) colonies grown on MH agar plates were inoculated in 3 ml of MH broth and incubated for about 16 h at 37° C. under agitation. 30 μl of this saturated culture were inoculated in 3 ml of fresh medium and allowed to grow until OD600 nm of about 0.6-0.8. Dilution to an OD600 nm of 0.002 was made in MH broth. Within a time laps not exceeding 30 min, 50 μl of this cell suspension was added to 50 μl of MH broth (containing or not the peptide/antibiotic diluted in MH broth) in wells of a 96-well round bottom microwell plate (Greiner; final cell density about 2 to 5×10^5 cfu/ml). Plates were incubated at 37° C. for 18-24 h and final turbidity of each well was measured at 620 nm using a Multiskan FC microplate reader (Thermo Scientific). MIC was defined as the minimal antibiotic concentration that result in no increase of turbidity at that time. Each MIC determination was performed in duplicate and at least in two independent experiments. Plating of 75 μl of the content of the wells of interest on LB Agar plates was used to determine the MBC that is defined by a decrease of at least 99.9% of cell viability as compared to the number of viable cells in the inoculum (about 2 to 5×10^4 cfu).
On the technique in general: Dilution methods test growth across graded concentrations, often in twofold steps.

The subject of assay [1] is E. coli ATCC 25922 (DSM 1103) strain. The assay is classed as cell-based. Particulars: ATCC 25922, 36 h. The procedure: as §1
The antimicrobial activities of these peptides have been tested against the E. coli ATCC 25922 (DSM 1103) strain in 1× Mueller-Hinton broth as mentioned above.
The antimicrobial activities of these peptides and controls have been tested against the E. coli ATCC 25922 (DSM 1103) strain in 1× Mueller-Hinton broth.

For another assay, the system named is E. coli. Particulars: cited from earlier work.
Another assay addresses Human PCNA (Homo sapiens, UniProt P12004). Nature of the assay: ITC, peptide interaction with human PCNA. The assay is classed as binding. The conditions noted are these: ITC 30° C. As for the experimental part:
The inventors have compared the affinities of the prototypical P7 SC-binding peptide for the bacterial SC and for the eukaryotic functional homolog “Proliferating Cell Nuclear Antigen” PCNA. The same analysis was performed with the DPD1 peptide that contains a well-described specific PCNA Interacting Peptide (PIP) sequence ([…]).
(In ITC the heat of successive injections is recorded.)

A further assay concerns E. coli D22 cells. The conditions noted are these: FITC staining after exposure to equal amounts, FIG. 1. The procedure: FIG. 1 concerns the analysis of peptide penetration into E. coli cells. (a) Fluorescence microscopy of E. coli cells exposed to the three different FITC labeled peptides.
In order to analyse the penetration capacity of the peptides in E. coli D22 cells, FITC-labeled peptides were added to 1 ml of bacterial cultures (OD600=0.8) at a final concentration of 8 μg/ml. The cells were allowed to acquire the peptides for 1 h at 37° C., washed 3 times with 0.5 ml PBS, fixed with 1% formaldehyde solution in PBS for 45 min at room temperature, washed 3 times with 0.5 ml PBS and finally resuspended in 50 μl PBS. Cells were visualized using a Leica DM5500 microscope equipped with a 100× objective and images were processed using Fiji software. One-way ANOVA statistical analysis was performed with the R package.

The target of another assay is T1, E coli β SC (Escherichia coli, UniProt P0A988).
T1 construct: endogenous in cells; host or cells: E. coli D22
In words: Co-immunoprecipitation of FITC peptides with E. coli β SC. Particulars: E. coli D22 cells, 1 hour, 16 μM FITC labelled peptide, FIG. 4. It counts as cell-based. The procedure:
FIG. 4 concerns the co-immunoprecipitation of FITC-K-Py-P7 peptide with the E coli β SC. E. coli D22 cells were incubated for 1 hour with or without 16 μM of the indicated FITC labelled peptide (lanes 1 and 5: no peptide; lanes 2 and 6: FITC-K-Pyr; lanes 3 and 7: FITC-K-Py-P7Scr; lanes 4 and 8: FITC-K-Py-P7). Lanes 1-4: 5% of the pre-cleared extracts were loaded as input controls. Lanes 5: Ig G sepharose beads pull down of the pre-cleared extracts not exposed to anti-FITC antibody. Lanes 6 to 8: Ig G sepharose beads pull down of the pre-cleared extracts previously incubated with FITC-labelled peptides and then exposed to anti-FITC antibody. Lanes 9-11: purified native β SC protein (lane 9: 5 ng; lane 10: 10 ng; lane 11: 20 ng). Upper image: western blot using the Ab 246, β SC specific monoclonal antibody. Lower image: total protein staining of the same membrane. M: Molecular weight markers.

Sequence of Human PCNA (P12004 whole entry): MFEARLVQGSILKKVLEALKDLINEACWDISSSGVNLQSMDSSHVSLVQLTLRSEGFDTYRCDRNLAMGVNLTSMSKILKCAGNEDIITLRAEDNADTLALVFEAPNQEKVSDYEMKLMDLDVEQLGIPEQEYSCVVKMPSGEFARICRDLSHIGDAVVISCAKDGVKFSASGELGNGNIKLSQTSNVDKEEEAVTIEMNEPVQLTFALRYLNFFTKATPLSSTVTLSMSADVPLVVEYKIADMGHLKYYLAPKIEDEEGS
T1 sequence (P0A988 whole entry): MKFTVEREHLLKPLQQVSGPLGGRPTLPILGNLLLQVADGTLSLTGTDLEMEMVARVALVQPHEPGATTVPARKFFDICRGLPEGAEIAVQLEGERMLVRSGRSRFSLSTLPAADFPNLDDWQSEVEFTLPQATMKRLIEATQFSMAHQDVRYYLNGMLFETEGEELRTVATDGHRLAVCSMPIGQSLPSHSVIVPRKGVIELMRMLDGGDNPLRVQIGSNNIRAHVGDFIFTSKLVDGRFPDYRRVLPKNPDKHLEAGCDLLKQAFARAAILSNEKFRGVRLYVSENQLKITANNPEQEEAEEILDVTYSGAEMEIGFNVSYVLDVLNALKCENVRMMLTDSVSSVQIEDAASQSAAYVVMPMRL

Consider `CC[C@H](C)[C@H](NC(=O)[C@@H](CCCNC(=N)N)NC(=O)[C@H](CCCNC(=N)N)NC(=O)[C@@H]1CCCN1C(=O)[C@@H]1CCCN1C(=O)[C@H](CCCNC(=N)N)NC(=O)[C@@H]1CCCN1C(=O)[C@H](CCCNC(=N)N)NC(=O)[C@@H]1CCCN1C(=O)[C@H](CC(C)C)NC(=O)[C@H](Cc1ccc(O)cc1)NC(=O)[C@@H]1CCCN1C(=O)[C@@H]1CCCN1C(=O)[C@H](CCCCN)NC(=O)[C@H](CC(=O)O)NC(=O)[C@@H](N)C(C)C)C(=O)N[C@@H](Cc1ccc(O)cc1)C(=O)N[C@@H](CC(N)=O)C(=O)N[C@H](CCCNC(=N)N)C(=O)N[C@@H](CC(N)=O)C(=O)NCC(=O)N1CCC[C@H]1C(=O)N[C@@H](CCCNC(=N)N)C(=O)N[C@@H](CCC(N)=O)C(=O)N[C@@H](CC1CCCCC1)C(=O)N[C@@H](CC(=O)O)C(=O)N[C@@H](CC(C)C)C(=O)N[C@@H](Cc1ccccc1)C(=O)O` [Peptide P30] (H-VDKPPYLPRPRPPR[dR]IYN[dR]NGPRQ[Cha]DLF-OH), for which, in the assay on E. coli D22 strain (D22 strain), the “MIC (μM)” value lay in the range of 0.15 to 0.29 µM and the “MIC (μg/ml)” value was in the range of 0.5 to 1 µg/mL. Also, the “antibacterial activity, in words” value in the assay with E. coli D22 strain is given as “no increase in the activity”. Also, in assay [1], the MIC – broadly, the least concentration at which growth counts as inhibited – is 16 to 32 µM.

As to `CC[C@H](C)[C@H](NC(=O)[C@@H](CCCNC(=N)N)NC(=O)[C@H](CCCNC(=N)N)NC(=O)[C@@H]1CCCN1C(=O)[C@@H]1CCCN1C(=O)[C@H](CCCNC(=N)N)NC(=O)[C@@H]1CCCN1C(=O)[C@H](CCCNC(=N)N)NC(=O)[C@@H]1CCCN1C(=O)[C@H](CC(C)C)NC(=O)[C@H](Cc1ccc(O)cc1)NC(=O)[C@@H]1CCCN1C(=O)[C@@H]1CCCN1C(=O)[C@H](CCCCN)NC(=O)[C@H](CC(=O)O)NC(=O)[C@@H](N)C(C)C)C(=O)N[C@@H](Cc1ccc(O)cc1)C(=O)N[C@@H](CC(N)=O)C(=O)N[C@H](CCCNC(=N)N)C(N)=O` [Peptide P28, reference compound] (H-VDKPPYLPRPRPPR[dR]IYN[dR]-NH2; N-terminus assumed), the minimum inhibitory concentration (MIC) in assay [1] lay in the range of 2 to 8 µM. For the same molecule, the “MIC of previous reports” value was 0.82 µM in the assay with E. coli and 2 µg/mL with E. coli (other E. coli strains and/or culture media).

Consider `CC(=O)N[C@@H](CCC(N)=O)C(=O)N[C@@H](CC1CCCCC1)C(=O)N[C@@H](CC(=O)O)C(=O)N[C@@H](CC(C)C)C(=O)N[C@@H](Cc1ccccc1)C(=O)O` [Peptide P7, Ac-QChaDLF-OH, reference compound] (Ac-Q[Cha]DLF-OH), for which, in the assay with E. coli D22 strain (D22 strain), the “MIC (μM)” value is above 357 µM and the “MIC (μg/ml)” value is above 256 µg/mL. Besides, the “antibacterial activity, in words” value with E. coli D22 strain is recorded as “fails to induce any detectable antibacterial activity”. Moreover, the “interaction with Human PCNA, in words” value on Human PCNA is given as “no interaction could be detected”.

For `CC[C@H](C)[C@H](NC(=O)[C@@H]1CCCN1C(=O)[C@H](CCCNC(=N)N)NC(=O)[C@@H]1CCCN1C(=O)[C@@H]1CCCN1C(=O)[C@@H](NC(=O)[C@@H]1CCCN1C(=O)[C@H](CCCNC(=N)N)NC(=O)[C@@H]1CCCN1C(=O)[C@H](CC(C)C)NC(=O)[C@H](Cc1ccc(O)cc1)NC(=O)[C@H](CO)NC(=O)CNC(=O)[C@H](CCCCN)NC(=O)[C@H](CC(=O)O)NC(=O)[C@@H](NC(=O)[C@H](CCCCN)NC(=O)c1ccc2c(c1)C(=O)OC21c2ccc(O)cc2Oc2cc(O)ccc21)C(C)C)[C@@H](C)O)C(=O)N[C@@H](Cc1ccc(O)cc1)C(=O)N[C@@H](CC(N)=O)C(=O)N[C@@H](CCCNC(=N)N)C(=O)N[C@@H](CC(N)=O)C(=O)NCC(=O)N1CCC[C@H]1C(=O)N[C@@H](CCCNC(=N)N)C(=O)N[C@@H](CCC(N)=O)C(=O)N[C@@H](CC1CCCCC1)C(=O)N[C@@H](CC(=O)O)C(=O)N[C@@H](CC(C)C)C(=O)N[C@@H](Cc1ccccc1)C(=O)O` [Peptide P150], the “factor by which MIC is lower than that of P122” value in the assay on E. coli D22 strain is 4 to 16. Further, in the assay on E. coli D22 strain (D22 strain), the “MBC” value turned out to be 128 µg/mL (≈ 33.7 µM), the “MIC (μM)” value fell in the range of 16.9 to 33.8 µM and the “MIC (μg/ml)” value is 64 to 128 µg/mL. Moreover, the “entry into E. coli cells, times less efficiently than P122” value in the assay with E. coli D22 cells is given as “about 3 times”. Further, the “binding of SC within the bacterial cytoplasm (co-immunoprecipitation), in words” value at E coli β SC is reported as “can efficiently bind SC”.

In the case of `CC[C@H](C)[C@H](NC(=O)[C@@H](CCCNC(=N)N)NC(=O)[C@H](CCCNC(=N)N)NC(=O)[C@@H]1CCCN1C(=O)[C@@H]1CCCN1C(=O)[C@H](CCCNC(=N)N)NC(=O)[C@@H]1CCCN1C(=O)[C@H](CCCNC(=N)N)NC(=O)[C@@H]1CCCN1C(=O)[C@H](CC(C)C)NC(=O)[C@H](Cc1ccc(O)cc1)NC(=O)[C@@H]1CCCN1C(=O)[C@@H]1CCCN1C(=O)[C@H](CCCCN)NC(=O)[C@H](CC(=O)O)NC(=O)[C@@H](N)C(C)C)C(=O)N[C@@H](Cc1ccc(O)cc1)C(=O)N[C@@H](CC(N)=O)C(=O)N[C@H](CCCNC(=N)N)C(=O)N[C@@H](CC(N)=O)C(=O)NCC(=O)N1CCC[C@H]1C(=O)N[C@@H](CCCNC(=N)N)C(=O)N[C@@H](CC1CCCCC1)C(=O)N[C@@H](Cc1ccccc1)C(=O)N[C@@H](CCC(N)=O)C(=O)N[C@@H](CC(C)C)C(=O)N[C@@H](CC(=O)O)C(=O)O` [Peptide P120] (H-VDKPPYLPRPRPPR[dR]IYN[dR]NGPR[Cha]FQLD-OH), in the assay on E. coli D22 strain (D22 strain), the “MIC (μM)” value was 0.29 to 0.58 µM and the “MIC (μg/ml)” value is 1 to 2 µg/mL.

The values are drawn from patent US12098217B2, “Fusion peptides as antimicrobial agents” (CENTRE NATIONAL DE LA RECHERCHE SCIENTIFIQUE, priority 2019, dated 2024).
